The NIST ThermoML archive (doi:10.1016/j.fluid.2010.02.037)

Conditions: Gas, Oscillating disk viscometry

CCN(CC)CC [triethylamine]
Conditions | viscosity [mPa·s]
296.98 K, Amount density=4.2 mol/m3 | 0.006418
297.59 K, Amount density=6.31 mol/m3 | 0.006412
297.87 K, Amount density=8.75 mol/m3 | 0.006427
297.97 K, Amount density=4.2 mol/m3 | 0.006439
297.98 K, Amount density=4.99 mol/m3 | 0.00644
298.33 K, Amount density=4.99 mol/m3 | 0.006437
299.24 K, Amount density=7.52 mol/m3 | 0.006446
299.36 K, Amount density=6.31 mol/m3 | 0.006449
299.67 K, Amount density=2.2 mol/m3 | 0.00649
299.85 K, Amount density=2.2 mol/m3 | 0.006485
300.02 K, Amount density=3.13 mol/m3 | 0.006488
300.11 K, Amount density=8.75 mol/m3 | 0.00646
303.12 K, Amount density=3.13 mol/m3 | 0.006548
310.02 K, Amount density=4.2 mol/m3 | 0.006668
310.29 K, Amount density=6.31 mol/m3 | 0.006654
311.78 K, Amount density=8.75 mol/m3 | 0.006667
313.96 K, Amount density=2.2 mol/m3 | 0.006764
314.61 K, Amount density=4.99 mol/m3 | 0.00675
316.33 K, Amount density=3.13 mol/m3 | 0.006815
324.05 K, Amount density=8.75 mol/m3 | 0.006913
324.26 K, Amount density=3.13 mol/m3 | 0.006981
324.9 K, Amount density=6.31 mol/m3 | 0.006948
324.95 K, Amount density=4.2 mol/m3 | 0.006971
325.84 K, Amount density=4.99 mol/m3 | 0.00698
326.04 K, Amount density=7.52 mol/m3 | 0.006979
326.63 K, Amount density=2.2 mol/m3 | 0.007024
337.84 K, Amount density=6.31 mol/m3 | 0.007205
338.12 K, Amount density=7.52 mol/m3 | 0.007218
338.25 K, Amount density=4.99 mol/m3 | 0.007233
338.31 K, Amount density=3.13 mol/m3 | 0.007259
338.63 K, Amount density=4.2 mol/m3 | 0.007245
338.92 K, Amount density=8.75 mol/m3 | 0.007217
339.05 K, Amount density=2.2 mol/m3 | 0.007275
352.32 K, Amount density=7.52 mol/m3 | 0.007513
352.34 K, Amount density=8.75 mol/m3 | 0.007487
352.41 K, Amount density=6.31 mol/m3 | 0.007492
352.46 K, Amount density=4.99 mol/m3 | 0.007529
352.5 K, Amount density=2.2 mol/m3 | 0.007551
352.91 K, Amount density=3.13 mol/m3 | 0.007557
353.3 K, Amount density=4.2 mol/m3 | 0.007551
365.86 K, Amount density=4.2 mol/m3 | 0.007803
366.42 K, Amount density=8.75 mol/m3 | 0.007782
366.49 K, Amount density=3.13 mol/m3 | 0.007839
366.6 K, Amount density=2.2 mol/m3 | 0.007842
366.72 K, Amount density=7.52 mol/m3 | 0.007801
366.77 K, Amount density=6.31 mol/m3 | 0.007784
367.25 K, Amount density=4.99 mol/m3 | 0.007831
380.54 K, Amount density=4.99 mol/m3 | 0.008109
380.67 K, Amount density=3.13 mol/m3 | 0.008129
381.06 K, Amount density=8.75 mol/m3 | 0.008076
381.14 K, Amount density=2.2 mol/m3 | 0.008137
381.83 K, Amount density=6.31 mol/m3 | 0.008106
385.41 K, Amount density=4.2 mol/m3 | 0.008217
385.75 K, Amount density=7.52 mol/m3 | 0.008206
394.25 K, Amount density=4.2 mol/m3 | 0.008388
